Broadly, the GI50 is the concentration at which growth is held to half of that of the control.

The test system of the first assay is murine leukemia (L1210) and P388 leukemia cells.
Experiment: not given
The note with it: in vitro L1210 and in vivo P388; cited from earlier work.
In the case of `CN(C)CCNC(=O)c1cccc2c(=O)c3ccccc3sc12.Cl` [N-[2-(dimethylamino)ethyl-]-9-oxo-9H-thioxanthene-4-carboxamide monohydrochloride], the “assessment as a potential antitumor agent” value is recorded as “unlikely to worth pursuing”.

Another assay has as its system HeLa S-3 cells. As to the kind of experiment: Inhibition of cell growth (GI50), sulforhodamine B staining. The format is cell-based. The note with it: GI50 of carbocyclic congener versus GI50 of aza-analog, HeLa cells. As for the experimental part:
Growth inhibition (GI50) values were measured with HeLa S-3 cells selected for growth on plastic. The procedure was based on the protocol of Skehan et al. (Skehan, P., et al., J. Natl. Cancer Inst., 82:1107-1112 (1990), which is hereby incorporated by reference) HeLa cells were plated at 2×10^4 cells/well in 96 well plates. One day later, a control plate was fixed by addition of TCA to 5%. After five rinses with tap water, the plate was air dried and stored at 4° C. Test compounds were added to the remaining plates at 10-fold dilutions between 0.01 and 100 μM. Two days later, all plates were fixed as described above. Cells were then stained by the addition of 100 μl per well of 0.4% sulforhodamine B (SRB) in 1% acetic acid for 30 min at 4° C. Wells were then quickly rinsed 5×with acetic acid (1%) and allowed to air dry. The SRB was then solubilized by the addition of 100 μl per well of unbuffered 10 mM Tris base. Dye was quantified by measuring absorbance at 490 nm on a Molecular Devices kinetic microplate reader. Growth at each inhibitor concentration relative to the untreated control was calculated according to the following equation: percent growth=100×(T−To)/(C−To), where T was the average optical density (OD) of the test wells after 2 days of treatment, To was the average OD of the wells in the control plate on day 0 and C was the average OD of untreated wells. Plots of percent growth versus inhibitor concentration were used to determine the GI50.
The data below shown in Table 4 summarizes the in vitro growth inhibition constants (GI50) of HeLa Cells for the compounds of the current invention.
GI50 is the concentration of the compound that causes a 50 percent inhibition of tumor cell growth
In general terms: In SRB staining, fixed cells bind dye roughly in proportion to their protein.
In the case of `CCN(CC)CCNc1cccc2sc3ccncc3c(=O)c12` [drawing 98], the “Folds Improvements” value came out at 3.5. Take `CCN(CC)CCNc1ccc(CNC=O)c2sc3ccncc3c(=O)c12` [drawing 100]: the “Folds Improvements” value came to 3. Still for that read-out and setting: to `CCN(CC)CCNc1ccc(CN)c2sc3ccncc3c(=O)c12` [drawing 102] belongs 1; to `CCN(CC)CCNc1ccc(CNS(C)(=O)=O)c2sc3ccncc3c(=O)c12` [drawing 104], 7.5; to `CCN(CC)CCNc1ccc(CNS(C)(=O)=O)c2sc3ccncc3c(=O)c12` [drawing 106], 10.

Staying with this assay, now noted: HeLa cells, Table 5, aza-analog; read-out: GI50 (Aza-Analog).
`CCN(CC)CCNc1ccc(CNS(C)(=O)=O)c2sc3ccncc3c(=O)c12` [drawing 106]: the GI50 was 300 nM.

Still in this assay, the particulars now being: Homo sapiens, HeLa S3, 48 h, HeLa cells, 2 days of treatment, Table 4; read-out: GI50 Activity.
Regarding `CCN(CC)CCNc1ccc(C=O)c2sc3ccccc3c(=O)c12`, the GI50 is 2000 nM. As for `CCN(CC)CCN(C)c1ccc2c(=O)c3cnccc3sc2c1`, the GI50 was over 10000 nM. Same read-out and setting: to `CCN(CC)CCNc1ccc(CNC(=O)OC)c2sc3ccncc3c(=O)c12` belongs 300 nM.

Consider `CCN(CC)CCn1nc2c3c(cccc31)Sc1ccncc1-2`, for which the GI50 amounted to 1000 nM. On the same count and under the same terms, the same measure for `CCN(CC)CCn1nc2c3c(c(CNC(=O)OC)ccc31)Sc1ccncc1-2`: 100 nM; for `CCN(CC)CCN(N)c1ccc2c(=O)c3cnccc3sc2c1`: over 10000 nM. For `CCN(CC)CCn1nc2c3c(c(CNC=O)ccc31)Sc1ccncc1-2`, the GI50 turned out to be 200 nM. The same measure, in the same setting: to `CCN(CC)CCn1nc2c3c(c(CN)ccc31)Sc1ccncc1-2` belongs 200 nM. Same read-out and setting: to `CCN(CC)CCn1nc2c3c(cccc31)Sc1ccccc1-2` belongs 9000 nM; to `CCN(CC)CCn1nc2c3c(c(C=O)ccc31)Sc1ccccc1-2`, 2000 nM. `CCN(CC)CCn1nc2c3c(c(CNC=O)ccc31)Sc1ccccc1-2`: the GI50 is 1000 nM.

Turning to `CCN(CC)CCn1nc2c3c(c(CN)ccc31)Sc1ccccc1-2`, the 50% growth inhibitory concentration (GI50) is 1000 nM. On the same count and under the same terms, to `CCN(CC)CCn1nc2c3c(c(CNS(C)(=O)=O)ccc31)Sc1ccccc1-2` belongs 900 nM; to `CCN(CC)CCn1nc2c3c(c(CNC(=O)OC)ccc31)Sc1ccccc1-2`, 3000 nM; to `CCN(CC)CCNc1cccc2sc3ccccc3c(=O)c12` [drawing 74], over 10000 nM. Still for that read-out and setting: to `CCN(CC)CCNc1ccc(CNC=O)c2sc3ccccc3c(=O)c12` [drawing 76] belongs 3000 nM; to `CCN(CC)CCNc1ccc(CN)c2sc3ccccc3c(=O)c12` [drawing 77], 600 nM. Still for that read-out and setting: the same measure for `CCN(CC)CCNc1ccc(CNS(C)(=O)=O)c2sc3ccccc3c(=O)c12` [drawing 78]: 3000 nM; for `CCN(CC)CCNc1ccc(CNC(=O)OC)c2sc3ccccc3c(=O)c12` [drawing 79]: 3000 nM; for `CCN(CC)CCNc1cccc2sc3ccncc3c(=O)c12` [drawing 81]: 3000 nM.

Turning to `CCN(CC)CCNc1ccc(CNC=O)c2sc3ccncc3c(=O)c12` [drawing 82], the GI50 was 1000 nM. As to `CCN(CC)CCNc1ccc(CN)c2sc3ccncc3c(=O)c12` [drawing 83], the GI50 stood at 700 nM.

As to `CCN(CC)CCNc1ccc(CNS(C)(=O)=O)c2sc3ccncc3c(=O)c12` [drawing 84], the GI50 is 400 nM.

Staying with this assay, now noted: Homo sapiens, HeLa S3, HeLa cells, Table 5, aza-analog; read-out: GI50 (Aza-Analog).
On to `CCN(CC)CCNc1cccc2sc3ccncc3c(=O)c12` [drawing 98], for which the GI50 amounted to 3000 nM. Same read-out and setting: the same measure for `CCN(CC)CCNc1ccc(CNC=O)c2sc3ccncc3c(=O)c12` [drawing 100]: 1000 nM; for `CCN(CC)CCNc1ccc(CN)c2sc3ccncc3c(=O)c12` [drawing 102]: 700 nM.

As for `CCN(CC)CCNc1ccc(CNS(C)(=O)=O)c2sc3ccncc3c(=O)c12` [drawing 104], the GI50 came out at 400 nM.

The same assay, now with this note: Homo sapiens, HeLa S3, HeLa cells, Table 5, carbocyclic congener; read-out: GI50 (Carbocic Congener).
Regarding `CCN(CC)CCNc1cccc2sc3ccccc3c(=O)c12` [drawing 97, reference compound], the GI50 is over 10000 nM. Same read-out and setting: to `CCN(CC)CCNc1ccc(CNC=O)c2sc3ccccc3c(=O)c12` [drawing 99, reference compound] belongs 3000 nM. On the same count and under the same terms, to `CCN(CC)CCNc1ccc(CN)c2sc3ccccc3c(=O)c12` [drawing 101, reference compound] belongs 600 nM. Still for that read-out and setting: to `CCN(CC)CCNc1ccc(CNS(C)(=O)=O)c2sc3ccccc3c(=O)c12` [drawing 103, reference compound] belongs 3000 nM; to `CCN(CC)CCNc1ccc(CNC(=O)OC)c2sc3ccccc3c(=O)c12` [drawing 105, reference compound], 3000 nM.
